pIC50: −log10 of the molar value.
These molecules were tested on human T cells (assay: Inhibition of 5-HT-dependent T Cell Proliferation). Conditions: Homo sapiens, T-cell, monocyte-free human T cells stimulated with PWM and 5-HT; 3H-thymidine incorporation; 7 days.
Type: cell-based
Description: The in vitro activity of the compounds according to the invention results from their capability to inhibit T cell proliferation, which is previously stimulated by serotonin.
Inhibition of 5-HT-dependent T Cell Proliferation
Peripheral mononuclear blood cells (PBMC) are obtained from the buffy coat of the blood of healthy subjects. After isolation by means of isolymph gradients (Pharmacia), the PBMC are washed twice and used directly. Purified T cells are obtained by E rosette formation with sheep erythrocytes [cf. Blue, M.-L. , J. F. Daley, H. Levine, K. A. Craig and S. F. Schlossmann, 1986, Biosynthesis and surface expression of T8 by peripheral blood T4+cells in vitro, J. Immunol. 137, 1202]. Monocytes are partially removed by adhesion to tissue culture plates or flasks. PBMC, T cells or purified T cells (depleted in monocytes) at 5×10^5 /ml, 100 μl/well are cultured in RPMI 1640 medium with 10% fetal calf serum (GIBCO) and L-glutamine in 96-well microculture plates (Becton--Dickinson)under a 5% CO2 atmosphere at 37° C. for 7 days. The cultures are treated with 1 μCi of ^3 H-thymidine for 6 h on the 7th day and collected on filter paper, and the incorporated radioactivity is determined by means of liquid scintillation counting.
The test substances are dissolved in 10 mM HCl in order to achieve a final concentration of 1 mM in each case. The compounds are diluted serially 3×with medium in order to obtain a final concentration between 33 μM-0.1 μM. PWM (1:200, pokeweed mitogen) and 5-HT (100 μm, serotonin), which contain the test substances, are added to monocyte-free human T cells. The positive control (maximum proliferation) is obtained from cultures containing T cells, PWM and 5-HT. The negative control (minimal proliferation) is obtained from cultures containing T cells and PWM without 5-HT. The inhibitory activity of the test substances is expressed as the IC50 in μM. (see also WO 92/04015)

Row | Structure (SMILES) | pIC50
1 | O=C1C2C3c4ccccc4C(c4ccccc43)C2C(=O)N1CCCN1CCN(c2ccccc2)CC1 (stereo not drawn) [Example 7] | < 5.00
2 | COc1ccccc1N1CCN(CCCN2C(=O)C3C4c5ccccc5C(c5ccccc54)C3C2=O)CC1 (stereo not drawn) [Example 21] | < 5.00
3 | O=C1C2C3c4ccccc4C(CCl)(c4ccccc43)C2C(=O)N1CCCN1CCN(c2ccc(F)cc2)CC1 (stereo not drawn) [Example 48] | 5.00
4 | Clc1ccccc1N1CCN(CCCCN2CC3C4c5ccccc5C(c5ccccc54)C3C2)CC1 (stereo not drawn) [Example 65] | 6.30
5 | CCc1ccccc1N1CCN(CCCN2C(=O)C3C4c5ccccc5C(c5ccccc54)C3C2=O)CC1 (stereo not drawn) [Example 20] | < 5.00
6 | O=C1C2C3c4ccccc4C(c4ccccc43)C2C(=O)N1CCCN1CCN(c2cccc(Cl)c2)CC1 (stereo not drawn) [Example 13] | < 5.00
7 | COc1ccc(N2CCN(CCCN3C(=O)C4C5c6ccccc6C(c6ccccc65)C4C3=O)CC2)cc1OC (stereo not drawn) [Example 28] | < 5.00
8 | O=C1C2C3c4ccccc4C(C=Cc4ccccc4)(c4ccccc43)C2C(=O)N1CCCN1CCN(c2ccc(F)cc2)CC1 (stereo not drawn) [Example 38] | < 5.00
9 | Cc1cccc(C)c1N1CCN(CCCN2C(=O)C3C4c5ccccc5C(c5ccccc54)C3C2=O)CC1 (stereo not drawn) [Example 23] | < 5.00
10 | O=C1N(CCCN2CCN(c3ccc(F)cc3)CC2)C(=O)C2(Cl)C3c4ccccc4C(c4ccccc43)C12Cl (stereo not drawn) [Example 51] | 4.30
11 | CC12c3ccccc3C(c3ccccc31)C1CN(CCCN3CCN(c4ccc(F)cc4)CC3)CC12 (stereo not drawn) [Example 96] | < 5.00
12 | O=C1C2C3c4ccccc4C(c4ccccc43)C2C(=O)N1CCCN1CCN(c2cccc(C(F)(F)F)c2)CC1 (stereo not drawn) [Example 15] | < 5.00
13 | O=C1C2C3c4ccccc4C(Cl)(c4ccccc43)C2C(=O)N1CCCN1CCN(c2ccccc2)CC1 (stereo not drawn) [Example 34] | < 5.00
14 | C=CC12c3ccccc3C(c3ccccc31)C1C(=O)N(CCCN3CCN(c4ccc(F)cc4)CC3)C(=O)C12 (stereo not drawn) [Example 37] | < 5.00
15 | O=C1C2C3c4ccccc4C(c4ccccc43)C2C(=O)N1CCCN1CCN(c2ccccc2Cl)CC1 (stereo not drawn) [Example 17] | < 5.00
16 | Clc1cccc(N2CCN(CCCN3CC4C5c6ccccc6C(c6ccccc65)C4C3)CC2)c1 (stereo not drawn) [Example 78] | 5.30
17 | Fc1ccc(N2CCN(CCCCN3CC4C5c6ccccc6C(c6ccccc65)C4C3)CC2)cc1 (stereo not drawn) [Example 69] | 6.22
18 | OCC12c3ccccc3C(c3ccccc31)C1CN(CCCN3CCN(c4ccc(F)cc4)CC3)CC12 (stereo not drawn) [Example 98] | 5.00
19 | Cc1ccccc1N1CCN(CCCCN2C(=O)C3C4c5ccccc5C(c5ccccc54)C3C2=O)CC1 (stereo not drawn) [Example 8] | < 5.00
20 | O=C1C2C3c4ccccc4C(c4ccccc43)C2C(=O)N1CCN1CCN(c2ccccc2)CC1 (stereo not drawn) [Example 3] | < 5.00
21 | O=C1C2C3c4ccccc4C(c4ccccc43)C2C(=O)N1CCCN1CCN(c2ccc(C(F)(F)F)cc2)CC1 (stereo not drawn) [Example 10] | < 5.00
22 | Fc1ccc(N2CCN(CCCN3CC4C5c6ccccc6C(Cl)(c6ccccc65)C4C3)CC2)cc1 (stereo not drawn) [Example 100] | 5.70
23 | COc1ccc(N2CCN(CCCCN3CC4C5c6ccccc6C(c6ccccc65)C4C3)CC2)cc1 (stereo not drawn) [Example 70] | 6.30
24 | Cc1cccc(N2CCN(CCCN3C(=O)C4C5c6ccccc6C(c6ccccc65)C4C3=O)CC2)c1 (stereo not drawn) [Example 14] | < 5.00
25 | N#CC12c3ccccc3C(c3ccccc31)C1C(=O)N(CCCN3CCN(c4ccc(F)cc4)CC3)C(=O)C12 (stereo not drawn) [Example 36] | < 5.00
26 | CC12c3ccccc3C(c3ccccc31)C1CN(CCCN3CCN(c4ccc(Cl)cc4)CC3)CC12 (stereo not drawn) [Example 95] | 5.30
27 | Clc1cccc(N2CCN(CCCCN3CC4C5c6ccccc6C(c6ccccc65)C4C3)CC2)c1 (stereo not drawn) [Example 66] | 5.70
28 | COc1ccc(N2CCN(CCCN3CC4C5c6ccccc6C(c6ccccc65)C4C3)CC2)cc1OC (stereo not drawn) [Example 93] | 5.00
29 | COc1cccc(N2CCN(CCCN3C(=O)C4C5c6ccccc6C(c6ccccc65)C4C3=O)CC2)c1 (stereo not drawn) [Example 16] | < 5.00
30 | O=C1C2C3c4ccccc4C(c4ccccc43)C2C(=O)N1CCCCN1CCN(c2ccc(F)cc2)CC1 (stereo not drawn) [Example 5] | < 5.00
